Like-named read-outs stand apart in the source and are kept apart here.
Test system: PANC-1 cells
Assay: cell viability assay in PANC-1 cells (compound alone, + 100 ng/ml TNFa, + 300 ng/ml TRAIL)
Type: cell-based
[1] = Homo sapiens, PANC-1, compound alone, Tables 6-10, read-out: IC50 (μM) in cell viability assay in PANC-1 cells: Compound alone
[2] = with 100 ng/ml TNFa, Tables 6-10, read-out: IC50 (μM) in cell viability assay in PANC-1 cells: Compound + 100 ng/ml TNFa
[3] = with 300 ng/ml TRAIL, Tables 6-10, read-out: IC50 (μM) in cell viability assay in PANC-1 cells: Compound + 300 ng/ml TRAIL
[4] = Homo sapiens, PANC-1, compound alone, Tables 15-18, read-out: IC50 (uM) in cell viability assay in PANC-1 cells: Cmpnd alone
[5] = with 100 ng/ml TNFa, Tables 15-18, read-out: IC50 (uM) in cell viability assay in PANC-1 cells: Cmpnd + 100 ng/ml TNFa
[6] = with 300 ng/ml TRAIL, Tables 15-18, read-out: IC50 (uM) in cell viability assay in PANC-1 cells: Cmpnd + 300 ng/ml TRAIL
[7] = compound alone, Tables 6-10, read-out: IC50 (μM) in cell viability assay in PANC-1 cells: Compound alone
[8] = Homo sapiens, PANC-1 cells, compound alone, read-out: IC50 (uM) in cell viability assay in PANC-1 cells, Cmpnd alone
[9] = PANC-1 cells, + 100 ng/ml TNFa, read-out: IC50 (uM) in cell viability assay in PANC-1 cells, Cmpnd + 100 ng/ml TNFa
[10] = PANC-1 cells, + 300 ng/ml TRAIL, read-out: IC50 (uM) in cell viability assay in PANC-1 cells, Cmpnd + 300 ng/ml TRAIL

Structure (SMILES)	IC50 [1] [µM]	IC50 [2] [µM]	IC50 [3] [µM]	also measured
CN[C@@H](C)C(=O)N[C@H](C(=O)N1CCC[C@H]1C(=O)N[C@H]1c2ccccc2C[C@@H]1OC(=O)CCCC(=O)O[C@H]1Cc2ccccc2[C@@H]1NC(=O)[C@@H]1CCCN1C(=O)[C@@H](NC(=O)[C@H](C)NC)C(C)(C)C)C(C)(C)C [Compound 118]	> 1	0.0007	0.0008	–
CN[C@@H](C)C(=O)N[C@H](C(=O)N1C[C@@H](NC(=O)c2cccc(C(=O)N[C@H]3C[C@@H](C(=O)N[C@@H]4CCCc5cc(O)ccc54)N(C(=O)[C@@H](NC(=O)[C@H](C)NC)C(C)(C)C)C3)c2)C[C@H]1C(=O)N[C@@H]1CCCc2cc(O)ccc21)C(C)(C)C (single isomer, unassigned) [Compound 61]	> 1	0.324	0.439	–
CN[C@@H](C)C(=O)N[C@H](C(=O)N[C@@H](CCNC(=O)c1cccc(C(=O)N[C@H]2C[C@@H](C(=O)N[C@@H]3CCCc4ccccc43)N(C(=O)[C@@H](NC(=O)[C@H](C)NC)C(C)(C)C)C2)c1)C(=O)N[C@@H]1CCCc2ccccc21)C(C)(C)C [Compound 169]	> 1	0.01	0.028	–
CN[C@@H](C)C(=O)N[C@@H](CC(=O)NCC#CC#CCNC(=O)C[C@H](NC(=O)[C@H](C)NC)C(=O)N1CCC[C@H]1C(=O)N[C@@H]1CCCc2ccccc21)C(=O)N1CCC[C@H]1C(=O)N[C@@H]1CCCc2ccccc21 [Compound P2-41]	–	–	–	IC50 [4]: > 1 µM; IC50 [5]: 0.094 µM; IC50 [6]: 0.092 µM
CN[C@@H](C)C(=O)N[C@@H](CCCCNC(=O)C[C@H](NC(=O)[C@H](C)NC)C(=O)N1CCC[C@H]1C(=O)N[C@@H]1CCCc2ccccc21)C(=O)N1CCC[C@H]1C(=O)N[C@@H]1CCCc2ccccc21 [Compound 199]	> 1	0.046	0.074	–
CC[C@@H](NC(=O)[C@@H]1C[C@H](NC(=O)c2cccc(C(=O)N[C@H]3C[C@@H](C(=O)N[C@H](CC)c4ccccc4)N(C(=O)[C@@H](NC(=O)[C@H](C)NC)C(C)(C)C)C3)c2)CN1C(=O)[C@@H](NC(=O)[C@H](C)NC)C(C)(C)C)c1ccccc1 [Compound 2]	–	0.062	0.054	IC50 [7]: > 1 µM
CN[C@@H](C)C(=O)N[C@H](C(=O)N1C[C@@H](NC(=O)c2cc(C(=O)N[C@H]3C[C@@H](C(=O)N[C@H](C)c4ccccc4)N(C(=O)[C@@H](NC(=O)[C@H](C)NC)C(C)(C)C)C3)n(C)n2)C[C@H]1C(=O)N[C@H](C)c1ccccc1)C(C)(C)C [Compound P3-107]	–	–	–	IC50 [8]: > 1 µM; IC50 [9]: 0.015 µM; IC50 [10]: 0.02 µM
CN[C@@H](C)C(=O)N[C@H](C(=O)N1C[C@@H](NC(=O)c2ccc(C(=O)N[C@H]3C[C@@H](C(=O)N[C@@H]4CCCc5ccccc54)N(C(=O)[C@@H](NC(=O)[C@H](C)NC)C(C)(C)C)C3)nc2)C[C@H]1C(=O)N[C@@H]1CCCc2ccccc21)C(C)(C)C [Compound P3-94]	–	–	–	IC50 [8]: > 1 µM; IC50 [9]: 0.003 µM; IC50 [10]: 0.006 µM
CN[C@@H](C)C(=O)N[C@H](C(=O)N1C[C@@H](OC(=O)c2cccc(C(=O)O[C@H]3C[C@@H](C(=O)N[C@H]4CCCc5ccccc54)N(C(=O)[C@@H](NC(=O)[C@H](C)NC)C(C)(C)C)C3)c2)C[C@H]1C(=O)N[C@H]1CCCc2ccccc21)C(C)(C)C [Compound 206]	> 1	–	–	–
CN[C@@H](C)C(=O)N[C@H](C(=O)N1C[C@@H](N(C)C(=O)c2cc(C(=O)N(C)[C@H]3C[C@@H](C(=O)N[C@H](C)c4ccccc4)N(C(=O)[C@@H](NC(=O)[C@H](C)NC)C(C)(C)C)C3)[nH]n2)C[C@H]1C(=O)N[C@H](C)c1ccccc1)C(C)(C)C [Compound P3-109]	–	–	–	IC50 [8]: > 1 µM; IC50 [9]: 0.028 µM; IC50 [10]: 0.049 µM
CN[C@@H](C)C(=O)N[C@H](C(=O)N1CCC[C@H]1c1nc(C(=O)NCCCCCCCCNC(=O)c2nc([C@@H]3CCCN3C(=O)[C@@H](NC(=O)[C@H](C)NC)C(C)(C)C)oc2-c2c[nH]c3ccccc23)c(-c2c[nH]c3ccccc23)o1)C(C)(C)C [Compound P4-26]	–	–	–	IC50 [4]: > 1 µM; IC50 [5]: 0.0007 µM; IC50 [6]: 0.0007 µM
CN[C@@H](C)C(=O)N[C@@H](CCCCNC(=O)c1cccc(C(=O)NCCCC[C@H](NC(=O)[C@H](C)NC)C(=O)N2C[C@@H](Oc3ccccc3)C[C@H]2C(=O)N[C@@H]2CCCc3ccccc32)c1)C(=O)N1C[C@@H](Oc2ccccc2)C[C@H]1C(=O)N[C@@H]1CCCc2ccccc21 [Compound P2-36]	–	–	–	IC50 [4]: > 1 µM; IC50 [5]: 0.079 µM; IC50 [6]: 0.09 µM
CN[C@@H](C)C(=O)N[C@@H](CCC(=O)Nc1cccc(C#Cc2cccc(NC(=O)CC[C@H](NC(=O)[C@H](C)NC)C(=O)N3CCC[C@H]3C(=O)N[C@@H]3CCCc4ccccc43)c2)c1)C(=O)N1CCC[C@H]1C(=O)N[C@@H]1CCCc2ccccc21 [Compound P2-49]	–	–	–	IC50 [4]: > 1 µM; IC50 [5]: 0.033 µM; IC50 [6]: 0.033 µM
CN[C@@H](C)C(=O)N[C@H](C(=O)N1C[C@@H](NC(=O)c2cccc(C(=O)N[C@H]3C[C@@H](C(=O)N[C@@H]4CCCc5cc(OC)ccc54)N(C(=O)[C@@H](NC(=O)[C@H](C)NC)C(C)(C)C)C3)c2)C[C@H]1C(=O)N[C@@H]1CCCc2cc(OC)ccc21)C(C)(C)C [Compound 45]	> 1	0.008	0.014	–
CN[C@@H](C)C(=O)N[C@H](C(=O)N1C[C@@H](NC(=O)c2cccc(C(=O)N[C@H]3C[C@@H](C(=O)NC4CCSc5ccccc54)N(C(=O)[C@@H](NC(=O)[C@H](C)NC)C(C)(C)C)C3)c2)C[C@H]1C(=O)NC1CCSc2ccccc21)C(C)(C)C (single isomer, unassigned) [Compound 68]	–	0.029	0.019	IC50 [7]: > 1 µM
CN[C@@H](C)C(=O)N[C@H](C(=O)N1CCC[C@H]1CN1C(=O)OC[C@@H]1Cc1ccccc1)[C@@H](C)OCC#CC#CCO[C@H](C)[C@H](NC(=O)[C@H](C)NC)C(=O)N1CCC[C@H]1CN1C(=O)OC[C@@H]1Cc1ccccc1 [Compound 82]	> 1	0.536	0.564	–
CN[C@@H](C)C(=O)N[C@@H](CC(=O)NCCNC(=O)C[C@H](NC(=O)[C@H](C)NC)C(=O)N1CCC[C@H]1C(=O)N[C@@H]1CCCc2ccccc21)C(=O)N1CCC[C@H]1C(=O)N[C@@H]1CCCc2ccccc21 [Compound P2-40]	–	–	–	IC50 [4]: > 1 µM; IC50 [5]: 0.19 µM; IC50 [6]: 0.25 µM
CN[C@@H](C)C(=O)N[C@H](C(=O)N[C@@H](CCNC(=O)c1cc(C(=O)N[C@H]2C[C@@H](C(=O)N[C@@H]3CCCc4ccccc43)N(C(=O)[C@@H](NC(=O)[C@H](C)NC)C(C)(C)C)C2)cc([N+](=O)[O-])c1)C(=O)N[C@H](C)C(C)C)C(C)C [Compound 179]	> 1	0.056	0.048	–
CN[C@@H](C)C(=O)N[C@H](C(=O)N1C[C@@H](NC(=O)c2cccc(C(=O)N[C@H]3C[C@@H](C(=O)N[C@@H]4CCCc5ccc(Br)cc54)N(C(=O)[C@@H](NC(=O)[C@H](C)NC)C(C)(C)C)C3)c2)C[C@H]1C(=O)N[C@@H]1CCCc2ccc(Br)cc21)C(C)(C)C (single isomer, unassigned) [Compound 63]	–	0.143	0.162	IC50 [7]: > 1 µM
CN[C@@H](C)C(=O)N[C@H](C(=O)N1C[C@@H](NC(=O)c2ccc(C(=O)N3CCN(C(=O)[C@H](C)NC)CC3)cc2)C[C@H]1C(=O)N[C@@H]1CCCc2ccccc21)C(C)(C)C [Compound 188]	> 1	0.56	0.55	–
CN[C@@H](C)C(=O)Nc1nc(CC(=O)NC[C@@H](NC(=O)[C@@H]2CCCN2C(=O)[C@@H](NC(=O)[C@H](C)NC)C(C)(C)C)c2ccccc2)cs1 [Compound 193]	> 1	> 1	> 1	–
CN[C@@H](C)C(=O)N[C@H](C(=O)N1C[C@@H](NC(=O)c2cc(C(=O)O)cc(C(=O)N[C@H]3C[C@@H](C(=O)N[C@@H]4CCCc5ccccc54)N(C(=O)[C@@H](NC(=O)[C@H](C)NC)C(C)(C)C)C3)c2)C[C@H]1C(=O)N[C@@H]1CCCc2ccccc21)C(C)(C)C [Compound 127]	> 1	0.032	0.028	–
CN[C@@H](C)C(=O)N[C@H](C(=O)N1C[C@@H](Oc2cccc(C#CC#Cc3cccc(O[C@H]4C[C@@H](C(=O)N[C@@H]5CCCc6ccccc65)N(C(=O)[C@@H](NC(=O)[C@H](C)NC)C(C)(C)C)C4)c3)c2)C[C@H]1C(=O)N[C@@H]1CCCc2ccccc21)C(C)(C)C [Compound P3-103]	–	–	–	IC50 [8]: > 1 µM; IC50 [9]: 0.0316 µM; IC50 [10]: 0.037 µM
CN[C@@H](C)C(=O)N[C@H](C(=O)N[C@@H](CCNC(=O)c1cc(C(=O)N[C@H]2C[C@@H](C(=O)N[C@@H]3CCCc4ccccc43)N(C(=O)[C@@H](NC(=O)[C@H](C)NC)C(C)(C)C)C2)cc([N+](=O)[O-])c1)C(=O)N[C@@H]1CCCc2ccccc21)C(C)C [Compound 182]	> 1	0.043	0.08	–
CN[C@@H](C)C(=O)N[C@@H](CCCCCC[C@H](NC(=O)[C@H](C)NC)C(=O)N1CCC[C@H]1c1ncc(C(=O)NC(c2ccccc2)c2ccccc2)o1)C(=O)N1CCC[C@H]1c1ncc(C(=O)NC(c2ccccc2)c2ccccc2)o1 [Compound 23]	> 1	> 1	> 1	–
